Experimental data from patent US11465983B2, “USP7 inhibitors for treating multiple myeloma” (Dana-Farber Cancer Institute, Inc., priority 2017, dated 2022).

Assays:
[1] = target: T1, USP7 (Homo sapiens, UniProt Q93009); assay: Ub-AMC assay (USP7 assay); format: biochemical; set-up: fused on or other part: His tag from pET28aLIC; removed by thrombin for the catalytic domain, no removal step given for the full length; settings: for IC50: USP7 assay
Description: USP7 and mutants were tested for their activity in Ubiquitin-AMC assay in presence or absence of inhibitors. […] For the same assay USP7 full length WT and Q351 mutant were used at 50 nM. […] The reaction was incubated 30 min at room temperature prior to the addition of 2 uM Ubiquitin-AMC (Boston Biochem) substrate. […] The calculated initial rate values were plotted against inhibitor concentrations to determine IC50s. All the experimental data were plotted using Prism GraphPad. FIG. 2A illustrates the structure guided optimization for the inhibition of USP7.
ND refers to not disclosed.
Target sequence in this assay (Q93009 208-560 limits assumed): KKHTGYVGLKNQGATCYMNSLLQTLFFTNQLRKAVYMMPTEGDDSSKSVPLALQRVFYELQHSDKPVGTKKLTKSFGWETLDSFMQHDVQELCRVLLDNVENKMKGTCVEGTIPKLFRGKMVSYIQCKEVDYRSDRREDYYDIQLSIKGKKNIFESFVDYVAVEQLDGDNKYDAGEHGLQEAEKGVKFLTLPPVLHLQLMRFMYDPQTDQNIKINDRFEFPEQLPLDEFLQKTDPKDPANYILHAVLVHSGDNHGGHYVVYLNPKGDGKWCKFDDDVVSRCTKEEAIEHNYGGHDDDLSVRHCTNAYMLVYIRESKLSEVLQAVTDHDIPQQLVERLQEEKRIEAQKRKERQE

[2] = target: T1, USP7; assay: Isothermal titration calorimetry, binding affinity of protein/ligand; set-up: made in house; host or cells: E. coli BL21 (DE3); settings: ITC at 20° C.
Description: The binding affinity of protein/ligand was measured by adding 0.02 mM protein in cell and titrating with 0.2 mM ligand in the syringe using an Auto-ITC200 microcalorimeter (Malvern) at 20° C. (FIG. 2C). Proteins and ligands were prepared within ITC buffer containing 20 mM HEPES pH 7.5, 150 mM NaCl, and 2% DMSO. The data were fit using Origin 7.0 software.
Target sequence in this assay (Q93009 whole entry, the tested form may be a part): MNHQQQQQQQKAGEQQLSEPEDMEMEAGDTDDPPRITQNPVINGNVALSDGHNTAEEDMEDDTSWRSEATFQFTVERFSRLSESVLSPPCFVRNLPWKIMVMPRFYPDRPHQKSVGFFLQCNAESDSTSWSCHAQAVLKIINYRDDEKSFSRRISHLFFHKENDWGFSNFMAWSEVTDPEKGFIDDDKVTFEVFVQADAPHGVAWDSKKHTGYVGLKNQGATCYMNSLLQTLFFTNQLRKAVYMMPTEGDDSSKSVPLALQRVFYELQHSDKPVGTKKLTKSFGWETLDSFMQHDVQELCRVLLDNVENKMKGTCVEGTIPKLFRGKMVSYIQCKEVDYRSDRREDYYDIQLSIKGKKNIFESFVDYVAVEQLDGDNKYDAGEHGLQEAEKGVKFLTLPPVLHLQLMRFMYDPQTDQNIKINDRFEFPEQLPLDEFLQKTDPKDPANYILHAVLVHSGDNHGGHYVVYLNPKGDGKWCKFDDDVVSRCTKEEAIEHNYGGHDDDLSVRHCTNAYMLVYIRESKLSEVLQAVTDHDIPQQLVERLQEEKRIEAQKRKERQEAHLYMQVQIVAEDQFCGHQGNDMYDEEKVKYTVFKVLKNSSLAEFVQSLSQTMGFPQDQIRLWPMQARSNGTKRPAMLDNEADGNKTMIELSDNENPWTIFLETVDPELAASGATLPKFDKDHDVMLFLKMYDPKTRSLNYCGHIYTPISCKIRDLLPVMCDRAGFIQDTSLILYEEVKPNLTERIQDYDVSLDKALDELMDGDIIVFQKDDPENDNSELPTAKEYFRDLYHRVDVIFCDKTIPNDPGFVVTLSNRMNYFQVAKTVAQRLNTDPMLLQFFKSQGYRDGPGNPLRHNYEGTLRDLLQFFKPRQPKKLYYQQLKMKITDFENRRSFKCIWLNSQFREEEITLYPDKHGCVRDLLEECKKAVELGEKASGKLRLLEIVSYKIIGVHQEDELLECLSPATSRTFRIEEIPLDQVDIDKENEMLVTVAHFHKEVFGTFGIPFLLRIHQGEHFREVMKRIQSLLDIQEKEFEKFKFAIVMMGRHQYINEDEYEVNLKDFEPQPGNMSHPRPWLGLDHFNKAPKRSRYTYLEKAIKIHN

[3] = test system: HDM2, p53 and p21 protein levels in MCF7 cells; assay: Immunoblot of HDM2, p53 and p21 protein levels in treated cells; format: cell-based; settings: 16 hours, FIG. 6A
Description: MCF7 and MM.1S were grown in RPMI supplemented with 10% Fetal Bovine serum (FBS) and antibiotics. Cells were treated with DMSO or different concentrations of compounds 10 and 11 for 6 (MM1S) or 16 (MCF7) hours in presence or absence of cycloheximide. For the experiments in which cycloheximide was used, cells were treated with compounds for 4 (MM1S) or 14 (MCF7) hours prior to the addition of 50 ug/ml of cycloheximide. At 6 or 16 h time point cells were washed in PBS and lysed in modified RIPA buffer (1% Triton X-100, 1% sodium deoxycholate, 0.1% SDS, 20 mM Tris, 150 mM NaCl, 1 mM EDTA) containing phosphatase inhibitor cocktails 1 and 2 (Sigma), and protease inhibitors. Protein concentrations were quantified using the BCA protein assay kit (Pierce) and samples were probed by immunoblotting using mdm2 (santa cruz sc-965), p53 (cell signaling 9282), p21 (cell signaling 2947), GAPDH (cell signaling 2118), USP7 (cell signaling 4833) antibodies (FIGS. 6A-D).

Row | Structure (SMILES) | IC50 [1] | also measured
1 | CC(CC(=O)N1CCC(O)(Cn2cnc3cc(Cl)ccc3c2=O)CC1)c1ccccc1 (stereo not shown) [Compound 8, 7-Chloro-3-((4-hydroxy-1-(3-phenylbutanoyl)piperidin-4-yl)methyl)quinazolin-4(3H)-one] | < 0.2 µM | DH [2]: -3.9 kcal/mol; DS (cal/mol•K) [2]: 13.1 cal/mol•K; n (stoichiometry) [2]: 2.46; Kd ([2]; 0.02 mM protein, 0.2 mM ligand): 1840 nM
2 | C[C@H](CC(=O)N1CCC(O)(Cn2cnc3cc(NC(=O)CCN4CCN(C)CC4)ccc3c2=O)CC1)c1ccccc1 [Compound 10, (R)—N-(3-((4-Hydroxy-1-(3-phenylbutanoyl)piperidin-4-yl)methyl)-4-oxo-3,4-dihydroquinazolin-7-yl)-3-(4-methylpiperazin-1-yl)propanamide] | < 0.2 µM | HDM2, p53 and p21 protein levels [3]: promotes loss HDM2 and accumulation of p53 and p21; DH [2]: -15.1 kcal/mol; n (stoichiometry) [2]: 1.06; Kd ([2]; 0.02 mM protein, 0.2 mM ligand): 104 nM
3 | O=C(CCc1ccccc1)N1CCC(O)(Cn2cnc3cc(Cl)ccc3c2=O)CC1 [Compound A, reference compound] |  | DH [2]: -5.4 kcal/mol; DS (cal/mol•K) [2]: 5.3 cal/mol•K; n (stoichiometry) [2]: 0.98; Kd ([2]; 0.02 mM protein, 0.2 mM ligand): 7610 nM
4 | O=C(Cc1ccccc1)N1CCC(O)(Cn2cnc3cc(Cl)ccc3c2=O)CC1 [Compound 7, 7-Chloro-3-((4-hydroxy-1-(2-phenylacetyl)piperidin-4-yl)methyl)quinazolin-4(3H)-one] | > 10 µM | Kd (μM) ([2]; 0.02 mM protein, 0.2 mM ligand): No binding
5 | O=C(CCc1ccccc1)N1CCC(O)(Cn2cnc3cc(Cl)ccc3c2=O)C1 (stereo not shown) [Compound 5, 7-chloro-3-((3-hydroxy-1-(3-phenylpropanoyl)pyrrolidin-3-yl)methyl)quinazolin-4(3H)-one] | > 10 µM | 
6 | C[C@@H](CC(=O)N1CCC(O)(Cn2cnc3cc(Cl)ccc3c2=O)CC1)c1ccccc1 [Compound 9, (S)-7-Chloro-3-((4-hydroxy-1-(3-phenylbutanoyl)piperidin-4-yl)methyl)quinazolin-4(3H)-one] | < 0.2 µM | DH [2]: -13.5 kcal/mol; DS (cal/mol•K) [2]: −17.3 cal/mol•K; n (stoichiometry) [2]: 0.96; Kd ([2]; 0.02 mM protein, 0.2 mM ligand): 797 nM
7 | O=C(N[C@@H](Cc1ccccc1)C(=O)N1CCC(O)(Cn2cnc3cc(Cl)ccc3c2=O)CC1)c1ccc2c(Cl)c3c(nc2c1)CCCC3 [Compound 99] | 1 to 10 µM | 
8 | O=C(CCc1ccc(Br)cc1)N1CCC(O)(Cn2cnc3cc(Cl)ccc3c2=O)CC1 [Compound 23] | > 10 µM | 
9 | O=C(c1ccc2c(Cl)c3c(nc2c1)CCCC3)N1CCC(O)(Cn2cnc3cc(Cl)ccc3c2=O)CC1 [Compound 71] | > 10 µM | 
10 | O=C(COc1ccccc1)N1CCC(O)(Cn2cnc3cc(Cl)ccc3c2=O)CC1 [Compound 31] | > 10 µM | 
11 | O=C([C@@H](O)Cc1ccccc1)N1CCC(O)(Cn2cnc3cc(Cl)ccc3c2=O)CC1 [Compound 32] | > 10 µM | 
12 | C=CC(=O)N[C@@H](Cc1ccccc1)C(=O)N1CCC(O)(Cn2cnc3cc(Cl)ccc3c2=O)CC1 [Compound 59] | > 10 µM | 
13 | O=C(CF)N[C@@H](Cc1ccccc1)C(=O)N1CCC(O)(Cn2cnc3cc(Cl)ccc3c2=O)CC1 [Compound 62] | > 10 µM | 
14 | C[C@@H](Cc1ccccc1)C(=O)N1CCC(O)(Cn2cnc3cc(Cl)ccc3c2=O)CC1 [Compound 73] | > 10 µM | 
15 | CN(Cc1ccccc1)C(=O)N1CCC(O)(Cn2cnc3cc(Cl)ccc3c2=O)CC1 [Compound 38] | 0.2 to 1 µM | 
16 | O=C(C1Cc2ccccc2C1)N1CCC(O)(Cn2cnc3cc(Cl)ccc3c2=O)CC1 [Compound 81] | > 10 µM | 
17 | CC(=O)Nc1cccc2c(=O)n(CC3(O)CCN(C(=O)C[C@@H](C)c4ccccc4)CC3)cnc12 [Compound 50] | 1 to 10 µM | 
18 | O=C(CCc1ccc([N+](=O)[O-])cc1)N1CCC(O)(Cn2cnc3cc(Cl)ccc3c2=O)CC1 [Compound 61] | > 10 µM | 
19 | O=C(CC1c2ccccc2-c2ccccc21)N1CCC(O)(Cn2cnc3cc(Cl)ccc3c2=O)CC1 [Compound 88] | > 10 µM | 
20 | C[C@H](CC(=O)N1CCC(O)(Cn2cnc3cc(NC(=O)CCN(C)C)ccc3c2=O)CC1)c1ccccc1 [Compound 15, (R)-3-(Dimethylamino)-N-(3-((4-hydroxy-1-(3-phenylbutanoyl)piperidin-4-yl)methyl)-4-oxo-3,4-dihydroquinazolin-7-yl)propanamide] | < 0.2 µM | 
21 | O=C(CCc1cccc(Br)c1)N1CCC(O)(Cn2cnc3cc(Cl)ccc3c2=O)CC1 [Compound 24] | > 10 µM | 
22 | O=C(CCc1ccccc1)N1CCC(O)(Cn2cnc3ccc([N+](=O)[O-])cc3c2=O)CC1 [Compound 68] | > 10 µM | 
23 | O=C(N1CCC(O)(Cn2cnc3cc(Cl)ccc3c2=O)CC1)N(Cc1ccccc1)Cc1ccccc1 [Compound 40] | > 10 µM | 
24 | CC(Cc1ccccc1)C(=O)N1CCC(O)(Cn2cnc3cc(Cl)ccc3c2=O)CC1 (stereo not shown) [Compound 29] | 0.2 to 1 µM | 

Row | Structure (SMILES) | IC50 [1] | also measured
25 | C[C@H](Cc1ccccc1)C(=O)N1CCC(O)(Cn2cnc3cc(Cl)ccc3c2=O)CC1 [Compound 72] | 0.2 to 1 µM | 
26 | CC(C)(C)C(=O)Nc1ccc2c(=O)n(CC3(O)CCN(C(=O)CCc4ccccc4)CC3)cnc2c1 [Compound 105] | > 10 µM | 
27 | CC(=O)Nc1ccc2c(=O)n(CC3(O)CCN(C(=O)CC(C)c4ccccc4)CC3)cnc2c1 (stereo not shown) [Compound 86] | 0.2 to 1 µM | 
28 | C=CCCC(=O)N1CCC(O)(Cn2cnc3cc(Cl)ccc3c2=O)CC1 [Compound 20] | > 10 µM | 
29 | CC(C)(CC(=O)N1CCC(O)(Cn2cnc3cc(Cl)ccc3c2=O)CC1)c1ccccc1 [Compound 28] | > 10 µM | 
30 | O=c1c2ccc(Cl)cc2ncn1CC1(O)CCN(c2ccccc2)CC1 [Compound 70] | > 10 µM | 
31 | O=C(CC(c1ccccc1)c1ccccc1)N1CCC(O)(Cn2cnc3cc(Cl)ccc3c2=O)CC1 [Compound 82] | 1 to 10 µM | 
32 | CC(C)C(CC(=O)N1CCC(O)(Cn2cnc3cc(NC(=O)CCN4CCN(C)CC4)ccc3c2=O)CC1)c1ccccc1 (stereo not shown) [Compound 13] | 0.2 to 1 µM | 
33 | CCC(Cc1ccccc1)C(=O)N1CCC(O)(Cn2cnc3cc(Cl)ccc3c2=O)CC1 (stereo not shown) [Compound 94] | 1 to 10 µM | 
34 | N[C@@H](Cc1ccccc1)C(=O)N1CCC(O)(Cn2cnc3cc(Cl)ccc3c2=O)CC1 [Compound 22] | > 10 µM | 
35 | CNC(=O)c1ccc2c(Cl)c3c(nc2c1)CCCC3 [Compound 90] | > 10 µM | 
36 | CC(=O)N1CCC(O)(Cn2cnc3cc(Cl)ccc3c2=O)CC1 [Compound 6, 3-((1-Acetyl-4-hydroxypiperidin-4-yl)methyl)-7-chloroquinazolin-4(3H)-one] | > 10 µM | 
37 | O=c1c2ccc(Cl)cc2ncn1CC1(O)CCN(c2ccc([N+](=O)[O-])cn2)CC1 [Compound 78] | > 10 µM | 
38 | O=C(C1CCCN1c1ccccc1)N1CCC(O)(Cn2cnc3cc(Br)ccc3c2=O)CC1 (stereo not shown) [Compound 65] | > 10 µM | 
39 | C[C@H](c1ccccc1)N(C)C(=O)N1CCC(O)(Cn2cnc3cc(Cl)ccc3c2=O)CC1 [Compound 41] | > 10 µM | 
40 | CN1CCN(CCC(=O)Nc2ccc3c(=O)n(CC4(O)CCN(C(=O)C(Cc5ccccc5)c5ccccc5)CC4)cnc3c2)CC1 (stereo not shown) [Compound 49] | > 10 µM | 
41 | Nc1ccc2c(=O)n(CC3(O)CCN(C(=O)CCc4ccccc4)CC3)cnc2c1 [Compound 57] | > 10 µM | 
42 | O=C(C[C@H](O)c1ccccc1)N1CCC(O)(Cn2cnc3cc(Cl)ccc3c2=O)CC1 [Compound 33] | > 10 µM | 
43 | C[C@@H](CC(=O)N1CCC(O)(Cn2cnc3cc(NC(=O)CCN4CCN(C)CC4)ccc3c2=O)CC1)c1ccccc1 [Compound 11, (S)—N-(3-((4-Hydroxy-1-(3-phenylbutanoyl)piperidin-4-yl)methyl)-4-oxo-3,4-dihydroquinazolin-7-yl)-3-(4-methylpiperazin-1-yl)propanamide] | < 0.2 µM | fold less active than its enantiomer compound 10 ([1]; USP7 inhibition, FIG. 2A): 80 fold
44 | O=C(NCCCCC(=O)N1CCC(O)(Cn2cnc3cc(Cl)ccc3c2=O)CC1)c1ccc2c(Cl)c3c(nc2c1)CCCC3 [Compound 98] | 0.2 to 1 µM | 
45 | O=C(C1CC1c1ccccc1)N1CCC(O)(Cn2cnc3cc(Cl)ccc3c2=O)CC1 (stereo not shown) [Compound 30] | 1 to 10 µM | 
46 | C[C@H](CC(=O)N1CCC(O)(Cn2cnc3cc(NC(=O)CCN4CCOCC4)ccc3c2=O)CC1)c1ccccc1 [Compound 14, (R)—N-(3-((4-hydroxy-1-(3-phenylbutanoyl)piperidin-4-yl)methyl)-4-oxo-3,4-dihydroquinazolin-7-yl)-3-morpholinopropanamide] | < 0.2 µM | 
47 | O=C(CCc1ccccc1)N1CCC(O)(Cn2cnc3cc([N+](=O)[O-])ccc3c2=O)CC1 [Compound 56] | > 10 µM | 
